# From paper PMC6017325, “Cell Penetrating Capacity and Internalization Mechanisms Used by the Synthetic Peptide CIGB-552 and Its Relationship with Tumor Cell Line Sensitivity” (Molecules : A Journal of Synthetic Chemistry and Natural …, 2018)
# Experiments:
# [1] = tested on: MCF-7; settings: MCF-7 cell line; read-out: cytotoxicity, IC50 value; cited from earlier work
# Text: Table 1 CIGB-552 cytotoxicity in H460, HT-29 and MCF-7 cell lines (expressed by the IC50 value in μM); D-amino acids are indicated in small and italic characters. | column: MCF-7
# [2] = tested on: MCF-7; assay: Internalization assay, flow cytometry, MCF-7; assay type: cell-based, human; settings: FITC-conjugated CIGB-552 5 and 50 μM, 1 h
# Method: (§1) Cells were seeded in 12-well plates (1 × 10^5 cells/well) and cultured in either D-MEM or RPMI supplemented with Glutamax, 10% (v/v) FBS, at 37 °C for 24 h. For those samples where internalization was analyzed by microscopy, round coverslips were placed into the wells prior to cell seeding. Subsequently, FITC-conjugated CIGB-552, was added to the cells to a final concentration of 5 μM or 50 μM and was incubated for 1 h at either 4 °C or 37 °C. For flow cytometry readout, culture medium was removed, cells were washed using phosphate-buffered saline (PBS) and surface-bound FITC-peptide was quenched with 0.4% (w/v) Trypan Blue solution. Cells were trypsinized and samples were acquired using Cyan ADP Flow Cytometer equipped with a 488 nm laser and a FL1 emission filter (530/40 nm). For data acquisition and analysis Summit v4.3 (Beckman Coulter, Fullerton, CA, USA) and FlowJo v.7.6.5 software (BD, Ashland, OR, USA) were used. For microscopy assays, cells were fixed in 4% (w/v) paraformaldehyde (PFA) for 15min, permeabilized using 0.2% (v/v) Tween 20 solution in PBS, and nuclei were stained using TOPRO-3 (1 μM, Life Technologies) and CellMask^TM membrane marker (1:2000, Life Technologies).
# (§2) Data was expressed as the mean ± Standard Deviation of triplicates of one representative experiment, three independent experiments were executed. […]
# [3] = tested on: HT-29; assay: Internalization assay, flow cytometry, HT-29; assay type: cell-based, human; settings: FITC-conjugated CIGB-552 5 and 50 μM, 1 h
# Method: as §1, §2
# [4] = tested on: H460; settings: H460 cell line; read-out: cytotoxicity, IC50 value; cited from earlier work
# Text: Table 1 CIGB-552 cytotoxicity in H460, HT-29 and MCF-7 cell lines (expressed by the IC50 value in μM); D-amino acids are indicated in small and italic characters. | column: H460
# [5] = tested on: HT-29; settings: HT-29 cell line; read-out: cytotoxicity, IC50 value; cited from earlier work
# Text: Table 1 CIGB-552 cytotoxicity in H460, HT-29 and MCF-7 cell lines (expressed by the IC50 value in μM); D-amino acids are indicated in small and italic characters. | column: HT-29
# [6] = tested on: H460; assay: Internalization assay, flow cytometry, H460; assay type: cell-based, human; settings: FITC-conjugated CIGB-552 5 and 50 μM, 1 h
# Method: as §1
# Data was expressed as the mean ± Standard Deviation of triplicates of one representative experiment, three independent experiments were executed. Statistic calculations were performed using Statistica software (STATSOFT, Hamburg, Germany). Differences were considered statistically significant when p < 0.05 using Mann-Whitney U Test.
# [7] = target: T1, COMMD1 protein (Homo sapiens, UniProt Q8N668); assay: Protein complementation assay (PCA), Venus; assay type: cell-based; settings: MCF-7 and H460 cells co-transfected with Venus 1 / Venus 2 plasmids containing COMMD1 or L2; confocal microscopy
# T1 construct: Venus fragment (Venus 1 or Venus 2); expressed in transfected cells; host or cells: MCF-7 and H460 cells, co-transfected with pCDNA3.1 Venus 1 / Venus 2 plasmids using Lipofectamine 2000
# T1 sequence (Q8N668 whole entry, the tested form may be a part): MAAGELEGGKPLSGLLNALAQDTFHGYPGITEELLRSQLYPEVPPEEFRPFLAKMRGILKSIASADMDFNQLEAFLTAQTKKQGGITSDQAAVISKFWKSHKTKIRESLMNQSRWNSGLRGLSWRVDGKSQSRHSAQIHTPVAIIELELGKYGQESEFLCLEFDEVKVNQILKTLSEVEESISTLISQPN
# Method: L2 peptide, which was chemically modified in its primary structure to generate the CIGB-552, was used for the protein complementation assay. Cells were seeded in 12-well plates containing round coverslips (1 × 10^5 cells/well) and cultured in either DMEM or RPMI supplemented with Glutamax, 10% (v/v) FBS, at 37 °C for 24 h. Cells were co-transfected with the plasmids pCDNA3.1 Venus 1 and pCDNA3.1 Venus 2 each one containing either COMMD1 protein or L2 peptide. Transfection was performed with Lipofectamine 2000 (Thermo Fisher, Waltham, MA, USA) using a ratio of 1:2 DNA:lipofectamine ([…]). […]
# All images were taken using laser confocal microscope Leica TCS SP5 equipped with a 63X NA 1.42 oil immersion objective (Leica Microsystems, Wetzlar, Germany). […] Quantification of the number of fully loaded cells was performed using 10 single optical sections for each cell line by using the Manual Counting plugin provided in Icy 1.9.5.1v imaging software. In order to assess fluorescence intensity both in cytoplasm and nuclei, images were taken in identical conditions (laser power, photomultiplier voltage, line and frame average and zoom) for all cell lines and 10 single optical sections were used for the analysis. […]
# [8] = MFI at 4 °C referred to MFI at 37 °C
in situ interaction with COMMD1 (fluorescence emission of Venus protein) [7],Substance,IC50 [1] [µM],temperature effect on internalization ([2]; 4 °C versus 37 °C),"contribution of the transduction mechanism to internalization [2, 8]",temperature effect on internalization ([3]; 4 °C versus 37 °C),"contribution of the transduction mechanism to internalization [3, 8]",IC50 [4] [µM],IC50 [5] [µM],temperature effect on internalization ([6]; 4 °C versus 37 °C),"internalization levels (median fluorescent intensity, MFI) ([6]; 37 °C, surface-bound peptide quenched with 0.4% Trypan Blue)","contribution of the transduction mechanism to internalization [6, 8]"
,"Ac-HARIKpTFRRlKWKYKGKFW [CIGB-552, twenty-amino-acid novel synthetic peptide, AMP-derived, cell penetrating, pro-apoptotic through COMMD1]",338 ± 39,reduction in the internalization,more than 50%,higher reduction in internalization levels,less than 50%,23 ± 8,166 ± 66,higher reduction in internalization levels,highest internalization levels,less than 50%
likely to interact,HARIKPTFRRLKWKYKGKFW [L2],,,,,,,,,,
